Values joined by “and” are separate entries in the source; they are usually repeats but may differ in a detail not shown here. Identical values can stand only once. Like-named read-outs stand apart in the source and are kept apart here.
What was measured:
[1] = tested on: gut microbial β-glucuronidase (GUS) enzymes; test: In vitro UDH (coupled) assay of TCS-G cleavage by a panel of 32 purified GUS enzymes; type: biochemical
[2] = tested on: Fp2-L1 GUS mutant proteins; test: Catalytic efficiency assay, wild-type and mutant Fp2-L1 GUS; type: biochemical, F. prausnitzii; settings: Fig. 3h, replicates 1-3
Rh3 GUS mutants = test: Catalytic efficiency assay, wild-type and mutant Rh3 GUS; type: biochemical, R. hominis; settings: Fig. 3j, replicates 1-3

## O=C(O)C1OC(Oc2cc(Cl)ccc2Oc2ccc(Cl)cc2Cl)C(O)C(O)C1O (stereo not drawn) [TCS-G, triclosan-glucuronide]
[1]
  Rate: 0.1092 µM/s and 0.1031 µM/s and 0.1177 µM/s
[1]; GUS: Akkermansia muciniphila, Fig. 3a, replicates 1-3
  Rate: 0.0108 µM/s and 0.0181 µM/s and 0.0194 µM/s
[1]; GUS: Akkermansia sp. CAG:344, Fig. 3a, replicates 1-3
  Rate: 0.0157 µM/s and 0.0151 µM/s and 0.0237 µM/s
[1]; GUS: Bacteroides MSP (BMSP), Fig. 3a, replicates 1-3
  Rate: 0.0000 µM/s and 0.0073 µM/s and 0.0072 µM/s
[1]; GUS: Bacteroides coprocola CAG: 126, Fig. 3a, replicates 1-3
  Rate: 0.0000 uM/s (2×) and 0.0056 uM/s
[1]; GUS: Bacteroides dorei, Fig. 3a, replicates 1-3
  Rate: 0.0000 µM/s
[1]; GUS: Bacteroides fragillis (1, mini loop), Fig. 3a, replicates 1-3
  Rate: 0.0000 uM/s (2×) and 0.0043 uM/s
[1]; GUS: Bacteroides fragillis (2, No Loop), Fig. 3a, replicates 1-3
  Rate: 0.0228 µM/s and 0.0242 µM/s and 0.0201 µM/s
[1]; GUS: Bacteroides ovatus 1 (Double mini loop), Fig. 3a, replicates 1-3
  Rate: 0.0000 µM/s and 0.0060 µM/s and 0.0033 µM/s
[1]; GUS: Bacteroides ovatus 2 (loop 2), Fig. 3a, replicates 1-3
  Rate: 0.0287 µM/s and 0.0311 µM/s and 0.0066 µM/s
[1]; GUS: Bacteroides uniformis 1, Fig. 3a, replicates 1-3
  Rate: 0.0000 µM/s
[1]; GUS: Bacteroides uniformis 2, Fig. 3a, replicates 1-3
  Rate: 0.0217 µM/s and 0.0464 µM/s and 0.0098 µM/s
[1]; GUS: Bacteroides uniformis 3, Fig. 3a, replicates 1-3
  Rate: 0.0000 µM/s
[1]; GUS: Clostridiales sp., Fig. 3a, replicates 1-3
  Rate: 0.2137 µM/s and 0.2298 µM/s and 0.2970 µM/s
[1]; GUS: Escherichia coli, Fig. 3a, replicates 1-3
  Rate: 0.0775 µM/s and 0.0865 µM/s and 0.0858 µM/s
[1]; GUS: Eubacterium eligens, Fig. 3a, replicates 1-3
  Rate: 0.1302 µM/s and 0.1403 µM/s and 0.1746 µM/s
[1]; GUS: Eubacterium sp. CAG: 76, Fig. 3a, replicates 1-3
  Rate: 0.2371 µM/s and 0.2156 µM/s and 0.2776 µM/s
[1]; GUS: Faecalibacterium prausnitzii 2-L1, Fig. 3a, replicates 1-3
  Rate: 0.4231 µM/s and 0.3684 µM/s and 0.3821 µM/s
[1]; GUS: Faecalibacterium prausnitzii L2-6, Fig. 3a, replicates 1-3
  Rate: 0.2237 µM/s and 0.2529 µM/s and 0.1639 µM/s
[1]; GUS: Faecalibacterium prausnitzii, Fig. 3a, replicates 1-3
  Rate: 0.1749 µM/s and 0.1228 µM/s and 0.2576 µM/s
[1]; GUS: Fusicatenibacter saccharivorans, Fig. 3a, replicates 1-3
  Rate: 0.0089 µM/s and 0.0000 µM/s and 0.0052 µM/s
[1]; GUS: H11G11, Fig. 3a, replicates 1-3
  Rate: 0.0684 µM/s and 0.0777 µM/s and 0.0864 µM/s
[1]; GUS: Lactobacillus rhamnosus, Fig. 3a, replicates 1-3
  Rate: 0.0323 µM/s and 0.1224 µM/s and 0.1254 µM/s
[1]; GUS: Parabacteroides merdea, Fig. 3a, replicates 1-3
  Rate: 0.0043 µM/s and 0.0011 µM/s and 0.0000 µM/s
[1]; GUS: Roseburia hominis 2, Fig. 3a, replicates 1-3
  Rate: 0.0519 µM/s and 0.0527 µM/s and 0.0448 µM/s
[1]; GUS: Roseburia hominis 3, Fig. 3a, replicates 1-3
  Rate: 0.4975 µM/s and 0.4668 µM/s and 0.4395 µM/s
[1]; GUS: Roseburia hominis, Fig. 3a, replicates 1-3
  Rate: 0.0330 µM/s and 0.0266 µM/s and 0.0438 µM/s
[1]; GUS: Roseburia intestinalis, Fig. 3a, replicates 1-3
  Rate: 0.0269 µM/s and 0.0251 µM/s and 0.0293 µM/s
[1]; GUS: Roseburia inulinvorans, Fig. 3a, replicates 1-3
  Rate: 0.1707 µM/s and 0.1889 µM/s and 0.1974 µM/s
[1]; GUS: Ruminoccus gnavus 1, Fig. 3a, replicates 1-3
  Rate: 0.0272 µM/s and 0.0287 µM/s and 0.0319 µM/s
[1]; GUS: Ruminoccus gnavus 3, Fig. 3a, replicates 1-3
  Rate: 0.1417 µM/s and 0.1517 µM/s and 0.1712 µM/s
[1]; GUS: Streptococcus agalactiae, Fig. 3a, replicates 1-3
  Rate: 0.0757 µM/s and 0.0745 µM/s and 0.0702 µM/s
[2]; Enzyme: Fp 2-L1 M362A
  Catalytic efficiency: 344000 M⁻¹ s⁻¹ and 207500 M⁻¹ s⁻¹ and 364600 M⁻¹ s⁻¹
[2]; Enzyme: Fp 2-L1 M454A
  Catalytic efficiency: 1202500 M⁻¹ s⁻¹ and 1255200 M⁻¹ s⁻¹ and 1243800 M⁻¹ s⁻¹
[2]; Enzyme: Fp 2-L1 M455A
  Catalytic efficiency: 1203800 M⁻¹ s⁻¹ and 1137600 M⁻¹ s⁻¹ and 1168500 M⁻¹ s⁻¹
[2]; Enzyme: Fp 2-L1 Y479A
  Catalytic efficiency: 0 M⁻¹ s⁻¹
Rh3 GUS mutants; Enzyme: Rh3 F406A
  Catalytic efficiency: 147440 M⁻¹ s⁻¹ and 148640 M⁻¹ s⁻¹ and 151680 M⁻¹ s⁻¹
Rh3 GUS mutants; Enzyme: Rh3 L635STOP
  Catalytic efficiency: 0 M⁻¹ s⁻¹
Rh3 GUS mutants; Enzyme: Rh3 Y430A
  Catalytic efficiency: 0 M⁻¹ s⁻¹

From article PMC8748916, “Microbial enzymes induce colitis by reactivating triclosan in the mouse gastrointestinal tract” (Nature Communications, 2022)
